Data on four compounds can be found in US10314811B2, “Compositions and methods for selectively inhibiting intestinal carboxylesterase 2 enzyme activity” (The Methodist Hospital, priority 2015, dated 2019).

Broadly, the pIC50 is −log10 of the IC50, conventionally taken in molar units.

pIC50: −log10 of the molar value. Where two headings read alike, the source gives them in different places.

Series [1] concerns CT 26 tumor bearing Balb/cJ mice. The experiment in a line: In vivo testing of anti-diarrheal activity with CPT-11 in tumor bearing mice (Example 3). Particulars: for anti-tumor efficacy, as evaluated by tumor growth, versus CPT-11 only group / losses in body weight induced by CPT-11 treatment / survival rates as compared to CPT-11 alone: 40 mg/kg orally with CPT-11 50 mg/kg i.p.; for anti-tumor efficacy, as evaluated by tumor growth, versus CPT-11 only group: FIG. 1A; for losses in body weight induced by CPT-11 treatment: FIG. 1B at 14-16 days of treatment; for survival rates as compared to CPT-11 alone: FIG. 1C; for day on which diarrhea occurred: CPT-11 50 mg/kg i.p., CES2 inhibitor (if any) 40 mg/kg orally; for Percentage of mice having diarrhea: CPT-11 50 mg/kg i.p. day 1-10, CES2 inhibitor (if any) 40 mg/kg orally day 0-11.
Procedure: CPT-11 was purchased from Selleck Chemicals. To obtain an injectable formulation, CPT-11 (20 mg/mL) was dissolved in a solution containing D sorbitol (45 mg/mL) and D lactic acid (0.9 mg/mL) in ddH2O, and heated to ˜70° C. to 90° C. for 5 to 10 min See Trifan et al. 2002, Cancer Res., 62(20):5778 5784. The pH of the solution was adjusted to 3.5 prior to sterile filtration. The solution was stored protected from light until just prior to administration.
Each of these compounds was dissolved separately in 100% DMSO and then diluted into a 0.5% carboxymethylcellulose solution. The final concentration of DMSO was less than 1%.
(§1) Healthy 6-8 week old female Balb/cJ mice were obtained from Jackson Laboratories (Bar Harbor, Me. USA). CT 26 tumor cells, derived from a murine Balb/c colon adenocarcinoma, were used to form tumors by subcutaneous injection of tumor cells into the posterior mid-dorsum of the mice. When tumors reached ˜500 mm^3 (˜10 days after implantation, defined as day 1), treatment was initiated. The mice were divided into five groups of 3-4 animals each and treated as follows:
(1) Vehicle group, mice received an equivalent volume of CPT-11 vehicle i.p. from day 1 to day 10, and an equivalent volume of compound vehicle orally from day 0 to day 11;
(2) CPT-11 only group, mice received CPT-11 (50 mg/kg) i.p. from day 1 to day 10, and an equivalent volume of compound vehicle orally from day 0 to day 11;
CPT-11 and the CES2 inhibitors were each administrated once per day during the experiment.
The CES2 inhibitor treatment groups were compared to the CPT-11 only group and to the vehicle control group. Four major parameters were examined to quantify the effect of CES2 inhibitors, namely, body weight change, presence of diarrhea, survival time, and average tumor size.

Series [2] shares this test system. The experiment in a line: In vivo efficacy of CPT-11 plus hesperetin at different doses (Example 4). Particulars: for Percentage of mice having diarrhea: CPT-11 alone.
Source text: as §1
Another series deals with T1, human liver CES1 (Homo sapiens, UniProt P23141).
T1 construct: purchased Sigma Aldrich E0162
T1 sequence (P23141 18-567): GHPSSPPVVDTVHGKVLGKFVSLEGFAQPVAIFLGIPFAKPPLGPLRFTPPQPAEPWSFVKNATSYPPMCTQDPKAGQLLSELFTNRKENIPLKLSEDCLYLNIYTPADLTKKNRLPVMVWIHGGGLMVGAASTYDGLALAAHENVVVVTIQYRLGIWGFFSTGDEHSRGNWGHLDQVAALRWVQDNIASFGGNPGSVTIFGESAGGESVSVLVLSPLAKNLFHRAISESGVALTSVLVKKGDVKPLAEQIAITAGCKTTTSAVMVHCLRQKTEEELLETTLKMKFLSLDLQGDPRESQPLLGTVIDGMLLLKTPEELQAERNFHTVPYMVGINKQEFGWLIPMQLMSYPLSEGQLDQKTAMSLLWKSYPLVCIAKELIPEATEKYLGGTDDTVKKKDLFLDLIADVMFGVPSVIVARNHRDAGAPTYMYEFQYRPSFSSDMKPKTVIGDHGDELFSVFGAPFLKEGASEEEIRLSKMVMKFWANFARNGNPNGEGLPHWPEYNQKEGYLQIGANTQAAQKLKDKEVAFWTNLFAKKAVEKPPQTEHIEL
The experiment in a line: CES1 enzyme assay (4-nitrophenyl acetate hydrolysis). In kind it is biochemical. The conditions noted are these: for inhibition of CES1: concentrations as high as 300 μM. From the text:
CES2 and CES1 enzyme assays were used for primary screening and IC50 determination of potential inhibitors. The assays are well established and widely used in compound discovery and lead optimization for CES inhibitors. See, e.g., Wadkins et al. 2004, Mol. Pharmacol. 65(6):1336 1343; Wadkins et al. 2005, J. Med. Chem. 48(8):2906 2915; Hicks et al. 2009, J. Med. Chem. 52(12):3742 3752; Hyatt et al. 2007, J. Med. Chem. 50(8):1876 1885; Hicks et al. 2007, Bioorg. Med. Chem. 15(11):3801 3817; Hyatt et al. 2007, J. Med. Chem., 50(23):5727 5734; Wadkins et al. 2007, Mol. Pharmacol. 71(3):713 723; and Young et al. 2010, J. Med. Chem., 53(24):8709 8715. CES converts esters into the corresponding alcohol and carboxylic acid. The esterase substrate, 4 nitrophenyl acetate (4 NPA), was used to detect enzyme activity. The recombinant purified intestinal CES2 and human liver CES1 enzymes and 4 NPA were purchased from Sigma Aldrich (product ID E0412, E0162, and N8130, respectively). […] The assays were conducted in a total volume of 300 μL in 96 well microtiter plates. Reaction mixtures consisted of the following: 100 μL 50 mM HEPES with 10 units of enzyme, 10 μL compound solution (various concentrations), 2 μL 300 mM 4 NPA and 188 μL 50 mM HEPES, pH 7.4. The test compound and 4 NPA solution were added to the wells first and then the reaction was initiated by the addition of enzyme solution. After incubation for 15 min. at 25° C., absorbance at 405 nm was measured using a microplate reader.

The target in series [3] is T2, recombinant purified intestinal CES2 (Homo sapiens, UniProt O00748).
T2 construct: purchased Sigma Aldrich E0412
T2 sequence (O00748 27-559): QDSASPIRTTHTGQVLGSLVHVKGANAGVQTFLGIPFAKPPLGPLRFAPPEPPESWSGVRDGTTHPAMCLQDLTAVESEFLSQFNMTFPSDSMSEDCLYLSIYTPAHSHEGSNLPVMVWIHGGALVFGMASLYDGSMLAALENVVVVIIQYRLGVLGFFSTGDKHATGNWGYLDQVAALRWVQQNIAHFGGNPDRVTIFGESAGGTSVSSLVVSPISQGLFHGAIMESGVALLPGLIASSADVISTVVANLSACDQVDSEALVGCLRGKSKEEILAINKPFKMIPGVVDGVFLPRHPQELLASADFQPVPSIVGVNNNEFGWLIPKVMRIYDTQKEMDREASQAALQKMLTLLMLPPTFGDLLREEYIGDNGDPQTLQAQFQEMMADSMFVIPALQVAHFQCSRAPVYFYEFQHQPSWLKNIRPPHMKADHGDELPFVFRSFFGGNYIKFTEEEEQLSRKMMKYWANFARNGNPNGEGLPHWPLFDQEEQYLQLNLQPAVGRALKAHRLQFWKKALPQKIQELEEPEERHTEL
Briefly: CES2 enzyme assay (4-nitrophenyl acetate hydrolysis). In kind it is biochemical.
Procedure: CES2 and CES1 enzyme assays were used for primary screening and IC50 determination of potential inhibitors. […] The esterase substrate, 4 nitrophenyl acetate (4 NPA), was used to detect enzyme activity. The recombinant purified intestinal CES2 and human liver CES1 enzymes and 4 NPA were purchased from Sigma Aldrich (product ID E0412, E0162, and N8130, respectively). […] The assays were conducted in a total volume of 300 μL in 96 well microtiter plates. Reaction mixtures consisted of the following: 100 μL 50 mM HEPES with 10 units of enzyme, 10 μL compound solution (various concentrations), 2 μL 300 mM 4 NPA and 188 μL 50 mM HEPES, pH 7.4. The test compound and 4 NPA solution were added to the wells first and then the reaction was initiated by the addition of enzyme solution. After incubation for 15 min. at 25° C., absorbance at 405 nm was measured using a microplate reader.

Where [4] appears, read: both hesperetin doses (20 mg/kg and 100 mg/kg) with CPT-11.
The mark [5] stands for this setting: 4 NPA substrate, 15 min at 25° C., pH 7.4, read-out: IC50 CES1 Assay.

Consider `COc1ccc([C@@H]2CC(=O)c3c(O)cc(O)cc3O2)cc1O` [hesperetin], for which, in series [1], the “anti-tumor efficacy, as evaluated by tumor growth, versus CPT-11 only group” value (from here on “anti-tumor efficacy … versus CPT-11 only group”) is given as “No significant changes”; the “losses in body weight induced by CPT-11 treatment” value is reported as “reversed”; the “survival rates as compared to CPT-11 alone” value is “improved”; the “day on which diarrhea occurred” value came to 12 days. For the same compound, the “Percentage of mice having diarrhea” value in series [1] (day 12 after treatment) stood at 25%. In addition, in series [2] (setting [4]), the “number of animals exhibiting diarrhea as compared to CPT-11 alone” value is reported as “reduced” and the “onset of diarrhea as compared to CPT-11 alone” value is listed as “significantly delayed”. For the same compound, the “survival of animals as compared to CPT-11 alone” value in series [2] (co-administering hesperetin and CPT-11, both hesperetin doses, FIG. 2C) is on record as “improved”. Moreover, the “loss in body weight induced by CPT-11 administration” value in series [2] (co-administration of hesperetin at both doses tested, FIG. 2B) is listed as “reduced”. Moreover, the “anti-tumor efficacy of CPT-11 on co-administration” value in series [2] (either dose of hesperetin (20 mg/kg or 100 mg/kg)) is reported as “improved”. In addition, the “day of onset of diarrhea” value in series [2] (hesperetin 20 mg/kg with CPT-11) amounted to 10 days. In series [2] (hesperetin 100 mg/kg with CPT-11), the “day of onset of diarrhea” value came out at 12 days. Besides, on human liver CES1, the pIC50 is less than 3.52 and the “inhibition of CES1” value is listed as “No significant inhibition”.
On to `O=C1C[C@@H](c2ccc(O)cc2)Oc2cc(O)cc(O)c21` [naringenin], for which, in series [1], the “anti-tumor efficacy … versus CPT-11 only group” value is “No significant changes”. Also, the pIC50 at human liver CES1 (setting [5]) is 3.80.
With `CCc1c2c(nc3ccc(OC(=O)N4CCC(N5CCCCC5)CC4)cc13)-c1cc3c(c(=O)n1C2)COC(=O)[C@]3(O)CC` [CPT-11, irinotecan], the “day on which diarrhea occurred” value in series [1] came to 9 days. Also, the “Percentage of mice having diarrhea” value in series [1] (day 9 after treatment) was determined as 50%; in series [1] (day 10 after treatment), 50%; in series [1] (day 11 after treatment), 75%; in series [1] (day 12 after treatment), 75%; in series [1] (day 13 after treatment) it was 75%; in series [1] (day 14 after treatment), 75%. The “Percentage of mice having diarrhea” value in series [2] (day 8 after treatment) was determined as 10%; in series [2] (day 9 after treatment), 20%; in series [2] (day 10 after treatment), 40%; in series [2] (day 11 after treatment) it was 70%; in series [2] (day 12 after treatment), 70%.
`O=C(/C=C/c1ccccc1)c1ccc(O)cc1O` [2′,4′ dihydroxychalcone, 2′,4′-dihydroxychalcone]: the “Selectivity (IC50 CES1)/(IC50 CES2)” value in series [3] is on record as more than 180. Besides, the pIC50 in series [3] (4 NPA substrate, 15 min at 25° C., pH 7.4) was 5.78. For the same compound, in series [1], the “anti-tumor efficacy … versus CPT-11 only group” value is listed as “No significant changes”; the “losses in body weight induced by CPT-11 treatment” value was “reversed”; the “survival rates as compared to CPT-11 alone” value was “improved”; the “day on which diarrhea occurred” value was 13 days. For the same compound, the “Percentage of mice having diarrhea” value in series [1] (day 12 after treatment) is “no mice”. Besides, the pIC50 on human liver CES1 (setting [5]) was less than 3.52. For the same compound, the “inhibition of CES1” value against human liver CES1 is reported as “No significant inhibition”.
